Measurements published in ChEMBL document CHEMBL1201862, “PubChem BioAssay data set” (2004).
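Protocol summary: plate cells (96-well), add compound at 5 concentrations, incubate 48 h, interpolate endpoints linearly. The concentration for 50% growth inhibition is given as GI50.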 The source made the active and inactive calls. Cut-off read from the data, not from the text of the source: active = GI50 up to about 1.1 µM and inactive = higher. Non-standard residues stand in square brackets, D forms with d. Residues, ends and D or L forms follow the SMILES beside them. Ava = NCCCCC(=O)O; Mpa = O=C(O)CCS

How the values were obtained:
Assay in all cases: inhibition of tumour cell growth, NCI panel, 48 h
MOLT-4 = tested on: MOLT-4
SN12C = tested on: SN12C
786-0 = tested on: 786-0
SK-MEL-5 = tested on: SK-MEL-5
SNB-75 = tested on: SNB-75
KM-20L2 = tested on: KM-20L2
NCI-H23 = tested on: NCI-H23
A498 = tested on: A498
TK-10 = tested on: TK-10
UACC-257 = tested on: UACC-257
NCI-H460 = tested on: NCI-H460
A549 = tested on: A549
NCI-H522 = tested on: NCI-H522
HOP-92 = tested on: HOP-92
OVCAR-3 = tested on: OVCAR-3
SK-MEL-28 = tested on: SK-MEL-28
Hs-578T = tested on: Hs-578T
MDA-N = tested on: MDA-N
MCF7 = tested on: MCF7
PC-3 = tested on: PC-3

Measured: GI50

COc1ccc(S(=O)(=O)N/N=C/CN2C(=O)c3ccccc3C2=O)cc1
inactive: MOLT-4 > 100 µM | SN12C > 100 µM | 786-0 > 100 µM | SK-MEL-5 > 100 µM | SNB-75 > 100 µM | KM-20L2 > 100 µM | NCI-H23 > 100 µM | A498 > 100 µM | TK-10 > 10 µM | UACC-257 > 100 µM | NCI-H460 > 100 µM | A549 > 100 µM | NCI-H522 > 100 µM

COC(=O)C1=C(c2cc(OC)c(OC)c(OC)c2)O[C@H](c2ccc3c(c2)OCO3)[C@H]1COC(C)=O
inactive: MOLT-4 18.7 µM | SN12C 24.7 µM | 786-0 29.4 µM | SK-MEL-5 9.35 µM | SNB-75 27.3 µM | KM-20L2 30.3 µM | NCI-H23 19.1 µM | A498 21.4 µM | HOP-92 7.24 µM | TK-10 39.2 µM | UACC-257 40.7 µM | NCI-H460 30.5 µM | OVCAR-3 30.5 µM

CCOC(=O)C(C(=O)OCC)=c1sc(=C(C(=O)OCC)C(=O)OCC)s1
inactive: MOLT-4 > 100 µM | SN12C > 100 µM | SK-MEL-28 > 100 µM | 786-0 > 100 µM | SK-MEL-5 > 100 µM | SNB-75 76.2 µM | KM-20L2 > 100 µM | NCI-H23 > 100 µM | HOP-92 > 100 µM | TK-10 > 100 µM | UACC-257 > 100 µM | NCI-H460 > 100 µM | OVCAR-3 > 100 µM | A549 > 100 µM | NCI-H522 > 100 µM

CC(=O)OCc1c(O)nc2c(c1O)-c1ccccc1CC2
inactive: MOLT-4 97.5 µM | SN12C 62.2 µM | SK-MEL-28 59.6 µM | 786-0 56.9 µM | SK-MEL-5 76.6 µM | KM-20L2 106 µM | NCI-H23 76.6 µM | HOP-92 78.5 µM | TK-10 86.9 µM | UACC-257 81.3 µM | NCI-H460 77.8 µM | OVCAR-3 51.5 µM | A549 134 µM | NCI-H522 35.6 µM

COc1cc(/C=C2\CCc3ccccc3C2=O)cc(OC)c1OC
inactive: MOLT-4 9.4 µM | SN12C 18 µM | SK-MEL-28 15.1 µM | 786-0 15.7 µM | SK-MEL-5 12.6 µM | SNB-75 22.2 µM | KM-20L2 17.2 µM | NCI-H23 15.7 µM | HOP-92 11.1 µM | TK-10 17.8 µM | UACC-257 14.3 µM | NCI-H460 16.9 µM | OVCAR-3 15.8 µM | A549 20.9 µM | NCI-H522 14.8 µM

COc1ccc(C(Cc2cc(OC)c(OC)c(OC)c2)C(=O)O)cc1 (stereo not drawn)
inactive: SN12C > 100 µM | SK-MEL-28 56.6 µM | 786-0 71.8 µM | SK-MEL-5 25.9 µM | SNB-75 22.8 µM | KM-20L2 56 µM | NCI-H23 97.9 µM | A498 56.5 µM | TK-10 > 100 µM | UACC-257 54.3 µM | NCI-H460 45.7 µM | OVCAR-3 24.3 µM | A549 60 µM

O=c1c2cc3c(cc2c2cccc4c2n1CCC4)OCO3
inactive: MOLT-4 24.6 µM | SN12C 36.8 µM | SK-MEL-28 69.5 µM | 786-0 27 µM | SK-MEL-5 42.4 µM | SNB-75 26.7 µM | KM-20L2 45.7 µM | NCI-H23 22.4 µM | HOP-92 55.5 µM | TK-10 27.1 µM | UACC-257 33.1 µM | NCI-H460 37.1 µM | OVCAR-3 61.2 µM | A549 51.6 µM | NCI-H522 16.2 µM

CC(=O)O[C@H]1CC[C@@]2(C)C(=CC[C@@H]3[C@@H]2CC[C@]2(C)c4nc(N)c(C#N)cc4C[C@@H]32)C1
inactive: MOLT-4 11.7 µM | SN12C 36.9 µM | SK-MEL-28 40 µM | 786-0 28.7 µM | SK-MEL-5 12.8 µM | SNB-75 7.96 µM | Hs-578T 24.9 µM | NCI-H23 35 µM | A498 > 67.6 µM | HOP-92 33 µM | TK-10 27.2 µM | UACC-257 27.2 µM | MDA-N 29 µM | MCF7 33.6 µM | NCI-H460 19.8 µM | OVCAR-3 1.75 µM | A549 25.9 µM | PC-3 42.5 µM | NCI-H522 12.6 µM

C/C(=N\NC(=S)N1CCCCCC1)c1nccnc1C
inactive: 786-0 5.14 µM | A498 1.58 µM
active: MOLT-4 0.0658 µM | SN12C 0.285 µM | SK-MEL-28 0.106 µM | SK-MEL-5 0.0292 µM | SNB-75 0.605 µM | KM-20L2 < 0.01 µM | NCI-H23 < 0.01 µM | TK-10 0.56 µM | UACC-257 < 0.01 µM | OVCAR-3 < 0.01 µM | A549 0.0331 µM

COC(=O)/C=C1/CCC(C(=O)OC)N1 (stereo not drawn)
inactive: MOLT-4 > 100 µM | SN12C > 100 µM | SK-MEL-28 > 100 µM | 786-0 > 100 µM | SK-MEL-5 > 100 µM | SNB-75 > 100 µM | KM-20L2 > 100 µM | NCI-H23 > 100 µM | A498 > 100 µM | HOP-92 > 100 µM | TK-10 > 100 µM | UACC-257 > 100 µM | NCI-H460 > 100 µM | OVCAR-3 > 100 µM | A549 > 100 µM

CC(NC(=O)CCS)C(=O)NC(C)C(=O)NC(Cc1c[nH]c2ccccc12)C(=O)NC(Cc1c[nH]cn1)C(=O)NC(CO)C(=O)NC(Cc1c[nH]c2ccccc12)C(=O)NCCCCC(=O)NC(C)C(=O)NC(CCC(N)=O)C(=O)NC(CCCCN)C(=O)NC(C)C(=O)NC(CCCNC(=N)N)C(=O)NC(CCCCN)C(N)=O (stereo not drawn) ([Mpa]AAWHSW[Ava]AQKARK-NH2; configuration not given here)
inactive: MOLT-4 > 100 µM | SN12C > 100 µM | SK-MEL-28 34.7 µM | 786-0 31.6 µM | SK-MEL-5 35.6 µM | SNB-75 > 100 µM | Hs-578T > 100 µM | NCI-H23 > 100 µM | A498 > 100 µM | HOP-92 > 100 µM | TK-10 > 100 µM | UACC-257 24.2 µM | MDA-N 54.2 µM | MCF7 > 100 µM | NCI-H460 37.2 µM | OVCAR-3 > 100 µM | A549 > 100 µM | PC-3 > 100 µM | NCI-H522 > 100 µM

CCOC(=O)c1c(N2CCCC2)[nH]c(=O)c(C(c2ccc(OC)cc2)c2c(O)c(C(=O)OCC)c(N3CCCC3)[nH]c2=O)c1O
inactive: MOLT-4 > 100 µM | SN12C > 100 µM | SK-MEL-28 > 100 µM | 786-0 > 100 µM | SK-MEL-5 > 100 µM | SNB-75 21.3 µM | Hs-578T > 100 µM | NCI-H23 82 µM | A498 > 100 µM | HOP-92 12.3 µM | TK-10 42.8 µM | UACC-257 > 100 µM | MDA-N > 100 µM | MCF7 > 100 µM | NCI-H460 > 100 µM | OVCAR-3 > 100 µM | A549 > 100 µM | PC-3 > 100 µM | NCI-H522 > 100 µM
